The text below walks through data of EP0091185A2, “Berbane derivatives” (CHINOIN Gyogyszer és Vegyészeti Termékek Gyára RT., priority 1982, dated 1983).

Data set [1] deals with CFY strain male rats. The experiment in a line: Systolic blood pressure of non-anaesthetized rats, measured indirectly on the tail with a cuff. The format is in vivo. The following applies: for Blood pressure change related to the starting (control) value, 3rd hour / Blood pressure change related to the starting (control) value, 6th hour / Blood pressure change related to the starting (control) value, 12th hour / Blood pressure change related to the starting (control) value, 18th hour / Blood pressure change related to the starting (control) value, 24th hour / Blood pressure change related to the starting (control) value, 48th hour: n 5; for dose achieving hypotension of approximately the same intensity and duration: comparison of reserpine and the racemic compound, i.p. The procedure:
The tests were carried. out on CFY strain male rats weighing 250-300 g. The systolic blood pressure was measured indirectly on the tails of the animals pressed down with the aid. of a cuff. […] The systolic blood pressure was determined by observing simultaneously the manometer and the out-signal.

For data set [2], the system named is CFLP strain female mice. Particulars: mouse, in vivo.
Method: These tests were carried out on CFLP strain female mice weighing 20-25 g by the rotating rod method [A. Kovach: Testing methods of experimental medical sciences - A kisérletes orvostudomany vizsgáló m6dszerei - Akad6mia kiad6, Budapest, VI. 232-233, 1962)].
The test system of data set [3] is male rats weighing 300 and having hypertension. Briefly: Systolic blood pressure decrease by the optically active enantiomers in hypertensive rats. The format is in vivo. The following applies: intraperitoneal 20 mg/kg, sixth hour following administration (maximum of the effect). The procedure: The tests were carried. out on CFY strain male rats weighing 250-300 g. The systolic blood pressure was measured indirectly on the tails of the animals pressed down with the aid. of a cuff. When the pressure of the pressing cuff attached to a mercury manometer decreased just under the systolic pressure, the sensing head of the measuring apparatus (VP 101 microphone adapted for this purpose and placed on the tails of the rats) signalled the appearence of arterial pulsation both in acustical and visual way (oscilloscope). The systolic blood pressure was determined by observing simultaneously the manometer and the out-signal. When administering the raoemic compound intraperitoneally in doses of 10 and. […] The characteristics of the hypotensive effect of reserpine used as control are substantially the same as those of the racemic compound; hypotension of approximately the same intensity and duration can be achieved by administering 2,5 mg/kg of reserpine and 20 mg/kg of the racemic compound, respectively.
The optically active enantiomers were administered in intraperitoneal doses of 20 mg/kg to male rats weighing 300 and having hypertension. […]

Setting [4] is: 10 mg/kg i.p., n 5, control 115 ± 2.
[5] abbreviates: 20 mg/kg i.p., n 5, control 116 ± 2.
[6] abbreviates: intraperitoneally 10 and 20 mg/kg.
Setting [7] is: 2,5 mg/kg i.p., n 5, control 117 ± 2.
[8] abbreviates: 5,0 mg/kg i.p., n 5, control 118 ± 2.

Consider `COC(=O)[C@H]1C(=O)[C@@H](OC(=O)c2cc(OC)c(OC)c(OC)c2)C[C@@H]2CN3CCc4cc5c(cc4[C@H]3C[C@@H]21)OCO5` (racemic) [SC-T 40, Racemic methyl-7,8-methylened.ioxy-15-(3,4,5--trimethoxy-benzoyloxy)-14-oxo-epiallo--berbane-13-carboxylate], for which, in data set [1] (10 mg/kg i.p.), the “Blood pressure change related to the starting (control) value, 3rd hour” value (“Blood pressure change related … 3rd hour” for short) was -4,23%; the “Blood pressure change related to the starting (control) value, 6th hour” value (shortened to “Blood pressure change related … 6th hour”) is reported as -13,88%; the “Blood pressure change related to the starting (control) value, 12th hour” value (“Blood pressure change related … 12th hour” below) was -12,14%; the “Blood pressure change related to the starting (control) value, 18th hour” value (shortened to “Blood pressure change related … 18th hour”) was -9,53%. For the same compound, in data set [1] (10 mg/kg i.p.), the “Blood pressure change related to the starting (control) value, 24th hour” value (“Blood pressure change related … 24th hour” for short) is recorded as -9,64% and the “Blood pressure change related to the starting (control) value, 48th hour” value (“Blood pressure change related … 48th hour” below) is -9,53%. In addition, in data set [1] (setting [4]), the “Blood pressure (Hgmm; x̄ ± S.E.) 3rd hour” value was determined as 110 ± 2 Hgmm, the “Blood pressure (Hgmm; x̄ ± S.E.) 6th hour” value came out at 99 ± 3 Hgmm, the “Blood pressure (Hgmm; x̄ ± S.E.) 12th hour” value is given as 101 ± 2 Hgmm and the “Blood pressure (Hgmm; x̄ ± S.E.) 18th hour” value is 104 ± 2 Hgmm. In addition, in data set [1] (setting [4]), the “Blood pressure (Hgmm; x̄ ± S.E.) 24th hour” value worked out at 104 ± 4 Hgmm and the “Blood pressure (Hgmm; x̄ ± S.E.) 48th hour” value stood at 104 ± 2 Hgmm. Besides, in data set [1] (20 mg/kg i.p.), the “Blood pressure change related … 3rd hour” value is on record as -7,98%; the “Blood pressure change related … 6th hour” value was -19,53%; the “Blood pressure change related … 12th hour” value was -17,11%; the “Blood pressure change related … 18th hour” value is listed as -12,76%. Moreover, in data set [1] (20 mg/kg i.p.), the “Blood pressure change related … 24th hour” value is recorded as -9,42% and the “Blood pressure change related … 48th hour” value is on record as -4,23%. In data set [1] (setting [5]), the “Blood pressure (Hgmm; x̄ ± S.E.) 3rd hour” value is recorded as 107 ± 2 Hgmm, the “Blood pressure (Hgmm; x̄ ± S.E.) 6th hour” value worked out at 93 ± 6 Hgmm, the “Blood pressure (Hgmm; x̄ ± S.E.) 12th hour” value turned out to be 96 ± 2 Hgmm and the “Blood pressure (Hgmm; x̄ ± S.E.) 18th hour” value is reported as 101 ± 3 Hgmm. Besides, in data set [1] (setting [5]), the “Blood pressure (Hgmm; x̄ ± S.E.) 24th hour” value is reported as 105 ± 2 Hgmm and the “Blood pressure (Hgmm; x̄ ± S.E.) 48th hour” value is recorded as 111 ± 1 Hgmm. The “dose achieving hypotension of approximately the same intensity and duration” value in data set [1] turned out to be 20 mg/kg. Further, in data set [1] (setting [6]), the “duration of the hypotensive effect” value is given as “still detected in the 48th hour” and the “time at which the hypotensive effect reached its maximum” value is “sixth hour”. Also, the hypotensive effect entry in data set [1] (intraperitoneally 10 and 20 mg/kg, 3-6 hours after the administration) is “significant hypotensive effect”. Moreover, in data set [2], the “Time for which mice stayed on the rotating rod (average, n = 10)” value was 102 ± 12,0 and the effect on coordination entry was “did not exhibit any effect on coordination”.
As for `COC(=O)[C@H]1[C@H]2C[C@@H]3c4[nH]c5cc(OC)ccc5c4CCN3C[C@H]2C[C@@H](OC(=O)c2cc(OC)c(OC)c(OC)c2)[C@@H]1OC` [RESERPINE, reserpine, reference compound], in data set [1] (2,5 mg/kg i.p.), the “Blood pressure change related … 3rd hour” value was -11,11%; the “Blood pressure change related … 6th hour” value is recorded as -18,8%; the “Blood pressure change related … 12th hour” value is recorded as -9,4%; the “Blood pressure change related … 18th hour” value is -12,82%. Besides, in data set [1] (2,5 mg/kg i.p.), the “Blood pressure change related … 24th hour” value is -10,26% and the “Blood pressure change related … 48th hour” value is -6,48%. In data set [1] (setting [7]), the “Blood pressure (Hgmm; x̄ ± S.E.) 3rd hour” value amounted to 104 ± 2 Hgmm, the “Blood pressure (Hgmm; x̄ ± S.E.) 6th hour” value was determined as 95 ± 2 Hgmm, the “Blood pressure (Hgmm; x̄ ± S.E.) 12th hour” value was 106 ± 2 Hgmm and the “Blood pressure (Hgmm; x̄ ± S.E.) 18th hour” value is given as 102 ± 1 Hgmm. Moreover, in data set [1] (setting [7]), the “Blood pressure (Hgmm; x̄ ± S.E.) 24th hour” value turned out to be 105 ± 3 Hgmm and the “Blood pressure (Hgmm; x̄ ± S.E.) 48th hour” value was 109 ± 2 Hgmm. Besides, in data set [1] (5,0 mg/kg i.p.), the “Blood pressure change related … 3rd hour” value is given as -15,25%; the “Blood pressure change related … 6th hour” value is -19,49%; the “Blood pressure change related … 12th hour” value was -13,56%; the “Blood pressure change related … 18th hour” value is listed as -8,47%. Moreover, in data set [1] (5,0 mg/kg i.p.), the “Blood pressure change related … 24th hour” value is reported as -10,17% and the “Blood pressure change related … 48th hour” value is recorded as -5.93%. Besides, in data set [1] (setting [8]), the “Blood pressure (Hgmm; x̄ ± S.E.) 3rd hour” value is on record as 100 ± 5 Hgmm, the “Blood pressure (Hgmm; x̄ ± S.E.) 6th hour” value was determined as 95 ± 7 Hgmm, the “Blood pressure (Hgmm; x̄ ± S.E.) 12th hour” value worked out at 102 ± 1 Hgmm and the “Blood pressure (Hgmm; x̄ ± S.E.) 18th hour” value is reported as 108 ± 2 Hgmm. Besides, in data set [1] (setting [8]), the “Blood pressure (Hgmm; x̄ ± S.E.) 24th hour” value worked out at 106 ± 3 Hgmm and the “Blood pressure (Hgmm; x̄ ± S.E.) 48th hour” value is given as 111 ± 2 Hgmm. The “dose achieving hypotension of approximately the same intensity and duration” value in data set [1] is reported as 2,5 mg/kg. In addition, in data set [2], the “Time for which mice stayed on the rotating rod (average, n = 10)” value was 9 ± 3,3 and the effect on coordination entry is “roduced coordination to a very significatn extent”.
As for “(+)-Methyl-7,8-methylenedioxy-15-(3,4,5--trimethoxy-benzoyloxy)-l4-oxo-epiallo--berbane-13-carboxylate [[(+), I]]”, the “blood-pressure decrease (average, n = 6)” value in data set [3] was 15,6 Hgmm.
On the same count and under the same terms, the result for “(-)-Methyl-7,8-methylenedioxy-15-(3,4,5--trimethoxy-benzoyloxy)-14-oxo-epiallo--berbane-13-carboxylate [[(-), I]]” reads 14,8 Hgmm.
